Laboratory results from ChEMBL document CHEMBL1143531, “Synthesis, in vitro, and in vivo antibacterial activity of nocathiacin I thiol-Michael adducts” (2005).
≈ marks a conversion by molar mass, not a printed value.

Experiments:
Format in all cases: functional
Staphylococcus aureus = experiment: In vitro minimum inhibitory concentration against methicillin sensitive […] A15090
Enterococcus faecalis = experiment: In vitro minimum inhibitory concentration against methicillin sensitive Enterococcus faecalis A20688
Streptococcus pneumoniae = experiment: In vitro minimum inhibitory concentration against penicillin resistant Streptococcus pneumoniae A28272
Mus musculus = experiment: In vivo protective dose required for mouse against systemic lethal […] infection; settings: read-out: PD50

SMILES	MIC (Staphylococcus aureus) [µg/mL]	MIC (Enterococcus faecalis) [µg/mL]	MIC (Streptococcus pneumoniae) [µg/mL]	ED50 (Mus musculus) [mg/kg]
CO/C(C)=C1/NC(=O)C([C@@H](C)O)NC(=O)c2csc(n2)-c2cc(O)c(-c3nc(C(=O)NC(SC4CN5CCC4C5)C(N)=O)cs3)nc2-c2csc(n2)[C@@H]2COC(=O)c3c4c5c(cccc5n3O)COC(=O)[C@@H](O[C@H]3C[C@](C)(O)[C@H](N(C)C)[C@H](C)O3)[C@@H](OC4)[C@H](NC(=O)c3csc1n3)c1nc(cs1)C(=O)N2 (some centres not stated)	2 (≈ 1.29 µM)	2 (≈ 1.29 µM)	0.25 (≈ 0.161 µM)	2.5
CO/C(C)=C1/NC(=O)C([C@@H](C)O)NC(=O)c2csc(n2)-c2cc(O)c(-c3nc(C(=O)NC(SCCP(=O)([O-])O)C(N)=O)cs3)nc2-c2csc(n2)[C@@H]2COC(=O)c3c4c5c(cccc5n3O)COC(=O)[C@@H](O[C@H]3C[C@](C)(O)[C@H](N(C)C)[C@H](C)O3)[C@@H](OC4)[C@H](NC(=O)c3csc1n3)c1nc(cs1)C(=O)N2.[Na+] (some centres not stated)	2	32	0.25	
CO/C(C)=C1/NC(=O)C([C@@H](C)O)NC(=O)c2csc(n2)-c2cc(O)c(-c3nc(C(=O)NC(SC(CC(=O)O)C(=O)O)C(N)=O)cs3)nc2-c2csc(n2)[C@@H]2COC(=O)c3c4c5c(cccc5n3O)COC(=O)[C@@H](O[C@H]3C[C@](C)(O)[C@H](N(C)C)[C@H](C)O3)[C@@H](OC4)[C@H](NC(=O)c3csc1n3)c1nc(cs1)C(=O)N2 (some centres not stated)	4 (≈ 2.54 µM)	4 (≈ 2.54 µM)	0.25 (≈ 0.159 µM)	> 10
CO/C(C)=C1/NC(=O)C([C@@H](C)O)NC(=O)c2csc(n2)-c2cc(O)c(-c3nc(C(=O)NC(SCCN=C(N)N)C(N)=O)cs3)nc2-c2csc(n2)[C@@H]2COC(=O)c3c4c5c(cccc5n3O)COC(=O)[C@@H](O[C@H]3C[C@](C)(O)[C@H](N(C)C)[C@H](C)O3)[C@@H](OC4)[C@H](NC(=O)c3csc1n3)c1nc(cs1)C(=O)N2 (some centres not stated)	4 (≈ 2.59 µM)	> 128	2 (≈ 1.3 µM)	
CO/C(C)=C1/NC(=O)C([C@@H](C)O)NC(=O)c2csc(n2)-c2cc(O)c(-c3nc(C(=O)NC(SCC(NC(C)=O)C(=O)O)C(N)=O)cs3)nc2-c2csc(n2)[C@@H]2COC(=O)c3c4c5c(cccc5n3O)COC(=O)[C@@H](O[C@H]3C[C@](C)(O)[C@H](N(C)C)[C@H](C)O3)[C@@H](OC4)[C@H](NC(=O)c3csc1n3)c1nc(cs1)C(=O)N2 (some centres not stated)	2 (≈ 1.26 µM)	8 (≈ 5.04 µM)	0.125 (≈ 0.0788 µM)	> 10
C=C(NC(=O)c1csc(-c2nc3c(cc2O)-c2nc(cs2)C(=O)N[C@@H]([C@@H](C)O)C(=O)N/C(=C(\C)OC)c2nc(cs2)C(=O)N[C@@H]2c4nc(cs4)C(=O)N[C@@H](COC(=O)c4c5c6c(cccc6n4O)COC(=O)[C@@H](O[C@H]4C[C@](C)(O)[C@H](N(C)C)[C@H](C)O4)[C@H]2OC5)c2nc-3cs2)n1)C(N)=O [MJ347-81F4 A]	0.007 (≈ 0.00487 µM)	0.03 (≈ 0.0209 µM)	0.002 (≈ 0.00139 µM)	0.8
CO/C(C)=C1/NC(=O)C([C@@H](C)O)NC(=O)c2csc(n2)-c2cc(O)c(-c3nc(C(=O)NC(SCC(=O)O)C(N)=O)cs3)nc2-c2csc(n2)[C@@H]2COC(=O)c3c4c5c(cccc5n3O)COC(=O)[C@@H](O[C@H]3C[C@](C)(O)[C@H](N(C)C)[C@H](C)O3)[C@@H](OC4)[C@H](NC(=O)c3csc1n3)c1nc(cs1)C(=O)N2 (some centres not stated)	2 (≈ 1.32 µM)	1 (≈ 0.66 µM)	0.125 (≈ 0.0825 µM)	> 10
CCN(CC)CCSC(NC(=O)c1csc(-c2nc3c(cc2O)-c2nc(cs2)C(=O)NC([C@@H](C)O)C(=O)N/C(=C(\C)OC)c2nc(cs2)C(=O)N[C@@H]2c4nc(cs4)C(=O)N[C@@H](COC(=O)c4c5c6c(cccc6n4O)COC(=O)[C@@H](O[C@H]4C[C@](C)(O)[C@H](N(C)C)[C@H](C)O4)[C@H]2OC5)c2nc-3cs2)n1)C(N)=O (some centres not stated)	0.125 (≈ 0.0803 µM)	0.25 (≈ 0.161 µM)	0.015 (≈ 0.00964 µM)	1.1
CO/C(C)=C1/NC(=O)C([C@@H](C)O)NC(=O)c2csc(n2)-c2cc(O)c(-c3nc(C(=O)NC(SCCS(=O)(=O)[O-])C(N)=O)cs3)nc2-c2csc(n2)[C@@H]2COC(=O)c3c4c5c(cccc5n3O)COC(=O)[C@@H](O[C@H]3C[C@](C)(O)[C@H](N(C)C)[C@H](C)O3)[C@@H](OC4)[C@H](NC(=O)c3csc1n3)c1nc(cs1)C(=O)N2.[Na+] (some centres not stated)	4	128	0.06	> 10
COCC(Cn1ccnc1)SC(NC(=O)c1csc(-c2nc3c(cc2O)-c2nc(cs2)C(=O)NC([C@@H](C)O)C(=O)N/C(=C(\C)OC)c2nc(cs2)C(=O)N[C@@H]2c4nc(cs4)C(=O)N[C@@H](COC(=O)c4c5c6c(cccc6n4O)COC(=O)[C@@H](O[C@H]4C[C@](C)(O)[C@H](N(C)C)[C@H](C)O4)[C@H]2OC5)c2nc-3cs2)n1)C(N)=O (some centres not stated)	0.25 (≈ 0.157 µM)	0.125 (≈ 0.0783 µM)	0.03 (≈ 0.0188 µM)	1.4
CO/C(C)=C1/NC(=O)C([C@@H](C)O)NC(=O)c2csc(n2)-c2cc(O)c(-c3nc(C(=O)NC(SCCC(=O)O)C(N)=O)cs3)nc2-c2csc(n2)[C@@H]2COC(=O)c3c4c5c(cccc5n3O)COC(=O)[C@@H](O[C@H]3C[C@](C)(O)[C@H](N(C)C)[C@H](C)O3)[C@@H](OC4)[C@H](NC(=O)c3csc1n3)c1nc(cs1)C(=O)N2 (some centres not stated)	1 (≈ 0.654 µM)		0.01 (≈ 0.00654 µM)	> 10
CO/C(C)=C1/NC(=O)C([C@@H](C)O)NC(=O)c2csc(n2)-c2cc(O)c(-c3nc(C(=O)NC(SCCc4nnn[nH]4)C(N)=O)cs3)nc2-c2csc(n2)[C@@H]2COC(=O)c3c4c5c(cccc5n3O)COC(=O)[C@@H](O[C@H]3C[C@](C)(O)[C@H](N(C)C)[C@H](C)O3)[C@@H](OC4)[C@H](NC(=O)c3csc1n3)c1nc(cs1)C(=O)N2 (some centres not stated)	2 (≈ 1.29 µM)	32 (≈ 20.6 µM)	0.25 (≈ 0.161 µM)	> 10
CCN(CC)CCS(=O)(=O)C(NC(=O)c1csc(-c2nc3c(cc2O)-c2nc(cs2)C(=O)NC([C@@H](C)O)C(=O)N/C(=C(\C)OC)c2nc(cs2)C(=O)N[C@@H]2c4nc(cs4)C(=O)N[C@@H](COC(=O)c4c5c6c(cccc6n4O)COC(=O)[C@@H](O[C@H]4C[C@](C)(O)[C@H](N(C)C)[C@H](C)O4)[C@H]2OC5)c2nc-3cs2)n1)C(N)=O (some centres not stated)	0.06 (≈ 0.0378 µM)	0.03 (≈ 0.0189 µM)	0.007 (≈ 0.00441 µM)	1.4
CO/C(C)=C1/NC(=O)C([C@@H](C)O)NC(=O)c2csc(n2)-c2cc(O)c(-c3nc(C(=O)NC(SCCN(C)C)C(N)=O)cs3)nc2-c2csc(n2)[C@@H]2COC(=O)c3c4c5c(cccc5n3O)COC(=O)[C@@H](O[C@H]3C[C@](C)(O)[C@H](N(C)C)[C@H](C)O3)[C@@H](OC4)[C@H](NC(=O)c3csc1n3)c1nc(cs1)C(=O)N2 (some centres not stated)	0.125 (≈ 0.0818 µM)	0.25 (≈ 0.164 µM)	0.015 (≈ 0.00981 µM)	1
CO/C(C)=C1/NC(=O)C([C@@H](C)O)NC(=O)c2csc(n2)-c2cc(O)c(-c3nc(C(=O)NC(SCC(N)C(=O)O)C(N)=O)cs3)nc2-c2csc(n2)[C@@H]2COC(=O)c3c4c5c(cccc5n3O)COC(=O)[C@@H](O[C@H]3C[C@](C)(O)[C@H](N(C)C)[C@H](C)O3)[C@@H](OC4)[C@H](NC(=O)c3csc1n3)c1nc(cs1)C(=O)N2 (some centres not stated)	1 (≈ 0.647 µM)	4 (≈ 2.59 µM)	2 (≈ 1.29 µM)	
CO/C(C)=C1/NC(=O)C([C@@H](C)O)NC(=O)c2csc(n2)-c2cc(O)c(-c3nc(C(=O)NC(C(N)=O)S(=O)(=O)C4C5CCN4CC5)cs3)nc2-c2csc(n2)[C@@H]2COC(=O)c3c4c5c(cccc5n3O)COC(=O)[C@@H](O[C@H]3C[C@](C)(O)[C@H](N(C)C)[C@H](C)O3)[C@@H](OC4)[C@H](NC(=O)c3csc1n3)c1nc(cs1)C(=O)N2 (some centres not stated)	0.5 (≈ 0.316 µM)	1 (≈ 0.631 µM)	0.06 (≈ 0.0379 µM)	
CO/C(C)=C1/NC(=O)C([C@@H](C)O)NC(=O)c2csc(n2)-c2cc(O)c(-c3nc(C(=O)NC(SC[C@@H]4NC(=O)NC4=O)C(N)=O)cs3)nc2-c2csc(n2)[C@@H]2COC(=O)c3c4c5c(cccc5n3O)COC(=O)[C@@H](O[C@H]3C[C@](C)(O)[C@H](N(C)C)[C@H](C)O3)[C@@H](OC4)[C@H](NC(=O)c3csc1n3)c1nc(cs1)C(=O)N2 (some centres not stated)	4 (≈ 2.55 µM)	128 (≈ 81.5 µM)	0.03 (≈ 0.0191 µM)	> 10
CO/C(C)=C1/NC(=O)C([C@@H](C)O)NC(=O)c2csc(n2)-c2cc(O)c(-c3nc(C(=O)NC(SCCc4cnccn4)C(N)=O)cs3)nc2-c2csc(n2)[C@@H]2COC(=O)c3c4c5c(cccc5n3O)COC(=O)[C@@H](O[C@H]3C[C@](C)(O)[C@H](N(C)C)[C@H](C)O3)[C@@H](OC4)[C@H](NC(=O)c3csc1n3)c1nc(cs1)C(=O)N2 (some centres not stated)	0.125 (≈ 0.0799 µM)	0.25 (≈ 0.16 µM)	0.015 (≈ 0.00959 µM)	4.4
